The text below walks through data of patent US4624952A, “Pyridazine and pyrimidine compounds active on the central nervous system as sedatives or anticonvulsants” (Sanofi, priority 1983, dated 1986).

Data set [1] relates to loss of the turn-around reflex in Charles River CDl mice. The experiment in a line: Potentialization of narcosis by pentobarbital. In kind it is in vivo. Particulars: po; mouse; product 60 min before pentobarbital 20 mg/kg i.p. How it is done: With a view to assessing the hypnogenic power of the products, we have studied their capacity to potentialize the effects of a subnarcotic dose of pentobarbital in the mouse. The batches were constituted by 10 Charles River CDl mice, weighing between 20 and 24 g. The pentobarbital (20 mg/kg, i.p.) was administered 60 minutes after administration of the products. The criterion of sleep-induction retained was the loss of the turn-around reflex.

For data set [2], the system named is convulsions induced by an electric shock in Charles River CDl mice. The experiment in a line: Antagonism of the convulsions induced by an electric shock. In kind it is in vivo. Particulars: 1 h; mouse; oral, 60 min before electric shock (12.5 volts, 0.3 seconds); read-out: Median effective dose (ED50) Antagonism of the electric shock. How it is done:
(§1) The anti-epileptic effect of the products in the mouse was assessed on a model of convulsions provoked by an electric shock, and on a model of convulsions induced by a chemical agent: bicuculline.
The test was slightly modified from that of SWINYARD et al (1952) and ASAMI et al (1974). The equipment was composed of a Racia shock generator provided with two ocular electrodes delivering a current of 12.5 volts for 0.3 seconds. The batches were constituted by 10 Charles River CDl mice, weighing between 20 and 24 g. The products were administered by the oral route, 60 minutes before the electric shock. The animals presenting no tonic extension of the rear limbs were considered as being protected from the convulsive crisis.

Data set [3] concerns convulsions provoked by bicuculline in Charles River CDl mice. Put plainly: Antagonism of the convulsions provoked by bicuculline. The data set is classed as in vivo. Particulars: mouse; oral, 60 min before bicuculline 0.8 mg/kg i.v.; read-out: Median effective dose (ED50) Antagonism of Bicuculline. How it is done:
as §1
The batches were constituted by 10 Charles River CDl mice, weighing between 20 and 22 g. The products were administered by the oral route, 60 minutes before the bicuculline (0.8 mg/kg, i.v.). The appearance of tonic convulsions was noted during the 60 minutes following the injection of the bicuculline.

The test system of data set [4] is spontaneous motility of female Charles River CDl mice. The experiment in a line: Effect of the products on the spontaneous motility (actimeter test). The data set is classed as in vivo. The following applies: Mus musculus, po, 0.75 h; 10 mg/kg p.o.; 45 min after administration, recorded 10 min; vs controls; * p 0,05 (Student test); read-out: Locomotor activity Score (p.cent/controls).

Data set [5] is described as follows: Lethal dose in the mouse after acute administration. Particulars: in vivo, oral, calculated, read-out: LD50 (DL50). How it is done: The products were administered by the oral route to batches of 5 female Charles River CDl mice, weighing between 20 and 24 g. They were solubilized in 0.1N HCl.
Toxicity was noted during the 72 hours following administration of the products. The LD50 was calculated for two products.
The results expressed in percentage of animals which die in the […] consecutive to the oral administration of the products are noted in the preceding Table.

Data set [6] relates to turnaround reflex of mice. The experiment in a line: Loss of turnaround reflex (sleep-inducing effect). In kind it is in vivo, mouse. Particulars: 100 mg/kg, oral. How it is done: The sedative effect is translated by the reduction of the spontaneous motility of the animals. This was measured by the actimeter test developed by BOISSIER and SIMON (1965). The equipment was composed of actimetric cages, of the Apelab type (26×21.5×10 cm), through which pass two light rays which act on a photoelectric cell. The batches were constituted by 12 female Charles River CDl mice weighing between 20 and 24 g. The animals were placed individually in the cages 45 minutes after the oral administration of the products at the dose of 250 mg/kg or at the dose of 100 mg/kg. Each passage through a light beam was counted by an individual meter. The scores corresponding to the movements of the animals were recorded for 10 minutes and compared with the scores made by the batches of control animals, treated solely by the vehicle (0.1N HCl).
On the other hand, at the dose of 100 mg/kg, the CM 41378 provokes a loss of turnaround reflex characteristic of a sleep-inducing effect in 50% of the animals treated.

Regarding `CN(C)C(=O)OC1CCN(c2ccc(-c3ccccc3Cl)nn2)CC1` [SR 42095], the ED50 in data set [1] was found to be 7.4 mg/kg; in data set [2] it was 2 mg/kg; in data set [3], 1.6 mg/kg. Also, the change in vivo at 10 mg/kg in data set [4] was -28%.

Turning to `OC1CCN(c2ccc(-c3ccc(Cl)cc3Cl)nn2)CC1` [SR 41378, 3-(4-hydroxy-piperidino)-6-(2,4-dichloro-phenyl)pyridazine], the values for the ED50 in data set [1], in data set [2] and in data set [3] were 21 mg/kg, 30 mg/kg and 5.7 mg/kg, respectively. Moreover, the median lethal dose (LD50) at 72 h in data set [5] was 423 mg/kg. Besides, in data set [6], the “loss of turnaround reflex characteristic of a sleep-inducing effect, animals treated” value was 50%.
